Consider 18 compounds from patent US7906551B2 (Rottapharm S.p.A., priority 2006, dated 2011).

Read-outs that look alike come from different tables or passages of the source.

In one assay the target is T1, COX-2 (Mus musculus, UniProt Q05769).
T1 construct: lipopolysaccharide (LPS, 10 μg/mL) to induce COX-2; endogenous in cells; host or cells: J774 murine monocyte/macrophage cell line, LPS-stimulated
T1 sequence (Q05769 18-604): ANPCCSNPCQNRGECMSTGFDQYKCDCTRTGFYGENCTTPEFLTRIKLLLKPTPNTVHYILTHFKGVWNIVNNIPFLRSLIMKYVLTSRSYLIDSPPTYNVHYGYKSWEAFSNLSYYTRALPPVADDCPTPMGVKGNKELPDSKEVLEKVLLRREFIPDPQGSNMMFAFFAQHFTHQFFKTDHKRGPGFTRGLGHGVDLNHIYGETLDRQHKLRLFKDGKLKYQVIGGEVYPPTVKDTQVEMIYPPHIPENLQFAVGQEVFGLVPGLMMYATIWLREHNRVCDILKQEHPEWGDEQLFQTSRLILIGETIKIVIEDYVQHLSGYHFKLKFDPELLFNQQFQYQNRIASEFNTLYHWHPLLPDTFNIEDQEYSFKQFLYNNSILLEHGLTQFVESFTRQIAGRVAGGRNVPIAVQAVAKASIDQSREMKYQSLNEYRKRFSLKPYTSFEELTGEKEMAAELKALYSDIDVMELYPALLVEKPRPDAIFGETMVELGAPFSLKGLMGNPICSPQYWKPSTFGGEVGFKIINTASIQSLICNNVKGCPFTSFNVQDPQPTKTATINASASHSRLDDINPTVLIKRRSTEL
Kind of assay: Assessment of COX-2 activity in LPS-stimulated J774 cells (PGE2 radioimmunoassay). It is filed as cell-based, murine. To be noted: for COX-1/COX-2 Selectivity Index (IC50 ratio): Table 6, Formula Ib; for IC50: read-out: COX-2 IC50. The method, then: Cells were stimulated for 24 h with E. coli lipopolysaccharide (LPS, 10 μg/mL) to induce COX-2, in the absence or presence of test compounds, at the concentrations previously reported. The supernatants were collected for the measurement of PGE2 by radioimmunoassay.
(§1) Analysis. Throughout the time the experiments lasted, triplicate wells were used for the various conditions of treatment. Results are expressed as the mean, for 3 experiments, of the % inhibition of PGE2 production by test compounds with respect to control samples. Data fit was obtained using the sigmoidal dose-response equation (variable slope). The IC50 were calculated by GraphPad Instat program (GraphPad software).

The target of the next assay is T2, COX-1 (Mus musculus, UniProt P22437).
T2 construct: endogenous in cells; host or cells: J774 murine monocyte/macrophage cell line
T2 sequence (P22437 27-602): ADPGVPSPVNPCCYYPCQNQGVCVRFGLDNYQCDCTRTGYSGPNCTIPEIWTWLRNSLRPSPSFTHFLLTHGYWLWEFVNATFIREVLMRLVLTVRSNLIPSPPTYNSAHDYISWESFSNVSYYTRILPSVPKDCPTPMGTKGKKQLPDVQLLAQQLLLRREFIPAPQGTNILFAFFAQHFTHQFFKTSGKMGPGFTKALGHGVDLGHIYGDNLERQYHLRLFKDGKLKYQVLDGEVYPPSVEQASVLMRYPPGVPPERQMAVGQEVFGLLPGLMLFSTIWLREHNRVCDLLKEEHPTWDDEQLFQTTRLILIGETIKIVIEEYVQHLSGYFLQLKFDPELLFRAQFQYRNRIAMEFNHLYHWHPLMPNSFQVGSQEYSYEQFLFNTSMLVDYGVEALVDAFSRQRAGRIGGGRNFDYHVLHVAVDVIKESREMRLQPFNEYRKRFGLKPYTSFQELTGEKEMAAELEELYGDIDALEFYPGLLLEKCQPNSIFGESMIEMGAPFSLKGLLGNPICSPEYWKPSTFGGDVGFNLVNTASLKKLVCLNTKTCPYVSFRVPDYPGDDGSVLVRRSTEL
In words: Assessment of COX-1 activity in J774 cells (arachidonic acid, PGE2 radioimmunoassay). It is filed as cell-based, murine. As for the experimental part: Stock solutions of the reference standard or of the test compounds were prepared in dimethyl sulphoxide, and an equivalent amount of dimethyl sulphoxide was included in control samples. At the end of the incubation the supernatants were collected for the measurement of PGE2 by radioimmunoassay.
as §1

In assay [1] the test system is rat model of edema induced by carragenine. Kind of assay: Carrageenan-induced paw edema. The assay is classed as in vivo. The following applies: 1 h, Table 10, 60 min, 20 mg/Kg, read-out: Edema inhibition 60 min, MPE. The method, then: (§2) Male Swiss albino mice (23-25 g) and Sprague Dawley or Wistar rats (150-200 g) were used. The animals were fed a standard laboratory diet and tap water ad libitum and kept at 23±1° C. with a 12 h light/dark cycle, light on at 7 a.m.
Rats paw volumes were measured using a plethysmometer. Rats received the investigated compounds 4 hours after a 0.1-ml injection of 1.0% carrageenan in the right hind paw. Five hours after the injection of carrageenan (i.e. 1 hour after the administration of the investigated compound), the paw volume of the right hind paw was measured and compared with saline/carrageenan-treated controls. Results are reported as maximum percent effect (MPE), see below for detailed explanation.

In assay [2] the test system is rat model of hyperalgesia induced by carragenine. Kind of assay: Paw pressure test, hyperalgesia induced by carragenine. To be noted: 20 mg/Kg. It is filed as in vivo. As for the experimental part: as §2
The nociceptive threshold in the rat was determined with an analgesimeter, according to the method described by Leighton et al, G. E.; Br. J. Pharmacol. 1988, 93, 553-560. Threshold pressure was measured before and 30, 60 and 120 min after treatment. An arbitrary cut-off value of 250 g was adopted. In order to induce an inflammatory process in the rat paw carrageenan (0.1 ml, 1%) was administered i.p. 4 h before test.

[3] abbreviates: 0.5 h, Table 10, 30 min, read-out: Analgesia 30 min MPE.
[4] abbreviates: 1 h, Table 10, 60 min, read-out: Analgesia 60 min MPE.

With `CCOC(=O)C(O)c1cc(-c2ccc(S(C)(=O)=O)cc2)n(-c2cccc(F)c2)c1C` (single isomer, unassigned; (+)) [Example 9a, (+)-Ethyl[2-hydroxy-2-[1-(3-fluoro)phenyl-2-methyl-5-(4-methylsulphonyl)phenyl-1H-pyrrol-3-yl]]acetate], the “COX-1/COX-2 Selectivity Index (IC50 ratio)” value on COX-2 is listed as over 1300.

Consider `CCOC(=O)C(O)c1cc(-c2ccc(S(C)(=O)=O)cc2)n(-c2cccc(F)c2)c1C` (single isomer, unassigned; (-)) [Example 9b, (−)-Ethyl[2-hydroxy-2-[1-(3-fluoro)phenyl-2-methyl-5-(4-methylsulphonyl)phenyl-1H-pyrrol-3-yl]]acetate], for which, at COX-2, the “COX-1/COX-2 Selectivity Index (IC50 ratio)” value is reported as over 650.

Regarding `CCNC(=O)Cc1cc(-c2ccc(S(C)(=O)=O)cc2)n(-c2ccccc2)c1C` [Example 14, N-Ethyl-[2-methyl-5-(4-methylsulphonyl)phenyl-1-phenyl-1H-pyrrol-3-yl]acetamide], the concentration for half-maximal inhibition (IC50) at COX-2 (Table 8, Formula I-c) is 350 nM; on COX-1 (Table 8, Formula I-c), over 100000 nM.

Regarding `Cc1c(CC(=O)N(C)Cc2ccccc2)cc(-c2ccc(S(C)(=O)=O)cc2)n1-c1ccccc1` [Example 16, N-Benzyl-N-methyl-[2-methyl-5-(4-methylsulphonyl)phenyl-1-phenyl-1H-pyrrol-3-yl]acetamide], the IC50 on COX-2 (Table 8, Formula I-c) was 170 nM; on COX-1 (Table 8, Formula I-c), over 100000 nM.

Turning to `CNC(=O)Cc1cc(-c2ccc(S(C)(=O)=O)cc2)n(-c2ccc(C(F)(F)F)cc2)c1C` [Example 17, N-Methyl-[2-methyl-5-(4-methylsulphonyl)phenyl-1-(4-trifluoromethyl)phenyl-1H-pyrrol-3-yl]acetamide], the IC50 at COX-2 (Table 8, Formula I-c) was 90 nM; against COX-1 (Table 8, Formula I-c), over 100000 nM.

As to `CCNC(=O)Cc1cc(-c2ccc(S(C)(=O)=O)cc2)n(-c2ccc(C(F)(F)F)cc2)c1C` [Example 18, N-Ethyl-[2-methyl-5-(4-methylsulphonyl)phenyl-1-(4-trifluoromethyl)phenyl-1H-pyrrol-3-yl]acetamide], the IC50 was 190 nM at COX-2 (Table 8, Formula I-c) and over 100000 nM at COX-1 (Table 8, Formula I-c).

With `Cc1c(CC(=O)N(C)Cc2ccccc2)cc(-c2ccc(S(C)(=O)=O)cc2)n1-c1ccc(C(F)(F)F)cc1` [Example 19, N-Benzyl-N-methyl-[2-methyl-5-(4-methylsulphonyl)phenyl-1-(4-trifluoromethyl)phenyl-1H-pyrrol-3-yl]acetamide], the IC50 on COX-2 (Table 8, Formula I-c) was 470 nM; on COX-1 (Table 8, Formula I-c), over 100000 nM.

On to `CCOCCc1cc(-c2ccc(S(C)(=O)=O)cc2)n(-c2ccccc2)c1C` [Example 21, [3-(2-Ethoxyethyl)-2-methyl-5-(4-methylsulphonyl)phenyl-1-phenyl]-1H-pyrrole], for which the inhibition in vivo at 20 mg/kg in assay [1] was found to be 45%; in assay [2] (setting [3]), 96%; in assay [2] (setting [4]), 72%.

Consider `CCCOCCc1cc(-c2ccc(S(C)(=O)=O)cc2)n(-c2ccccc2)c1C` [Example 22, [2-Methyl-5-(4-methylsulphonyl)phenyl-1-phenyl-3-(2-n-propyloxyethyl)]-1H-pyrrole], for which the figures for the inhibition in vivo at 20 mg/kg in assay [1], in assay [2] (setting [3]) and in assay [2] (setting [4]) were 43%, 88% and 94%, respectively.

For `COCCc1cc(-c2ccc(S(C)(=O)=O)cc2)n(-c2ccc(F)cc2)c1C` [Example 23, [1-(4-Fluoro)phenyl-2-methyl-5-(4-methylsulphonyl)phenyl-3-(2-methoxyethyl)]-1H-pyrrole], the IC50 was 18 nM at COX-2 (Table 9, Formula I-d) and over 100000 nM on COX-1 (Table 9, Formula I-d).

With `CCCOCCc1cc(-c2ccc(S(C)(=O)=O)cc2)n(-c2ccc(F)cc2)c1C` [Example 25, [1-(4-Fluoro)phenyl-2-methyl-5-(4-methylsulphonyl)phenyl-3-(2-n-propyloxyethyl)]-1H-pyrrole], the figures for the inhibition in vivo at 20 mg/kg in assay [1], in assay [2] (setting [3]) and in assay [2] (setting [4]) were 41%, 53% and 70%, respectively.

`COCCc1cc(-c2ccc(S(C)(=O)=O)cc2)n(-c2ccc(C(F)(F)F)cc2)c1C` [Example 26, [2-Methyl-5-(4-methylsulphonyl)phenyl-3-(2-methoxyethyl)-1-(4-trifluoromethyl)phenyl]-1H-pyrrole]: the IC50 at COX-2 (Table 9, Formula I-d) was 49 nM; against COX-1 (Table 9, Formula I-d) it was over 100000 nM.

As for `CCC(=O)OCCc1cc(-c2ccc(S(C)(=O)=O)cc2)n(-c2ccc(F)cc2)c1C` [Example 29, 2-(1-(4-Fluorophenyl)-2-methyl-5-(4-methylsulphonyl)phenyl-1H-pyrrol-3-yl)ethyl propionate], the “COX-2 % of inhibition at 1.10^−5 M” value at COX-2 is recorded as 97%. Further, the IC50 at COX-1 (Table 11, Formula I-e) was over 100000 nM.

Regarding `CCCC(=O)OCCc1cc(-c2ccc(S(C)(=O)=O)cc2)n(-c2ccc(F)cc2)c1C` [Example 30, 2-(1-(4-fluorophenyl)-2-methyl-5-(4-methylsulphonyl)phenyl-1H-pyrrol-3-yl)ethyl butanoate], at COX-2, the “COX-2 % of inhibition at 1.10^−5 M” value stood at 86%. The compound also yielded an IC50 on COX-1 (Table 11, Formula I-e) of over 100000 nM.

In the case of `Cc1c(CCOC(=O)c2ccccc2)cc(-c2ccc(S(C)(=O)=O)cc2)n1-c1ccc(F)cc1` [Example 31, 2-(1-(4-fluorophenyl)-2-methyl-5-(4-methylsulphonyl)phenyl-1H-pyrrol-3-yl)ethyl benzoate], at COX-2, the “COX-2 % of inhibition at 1.10^−5 M” value was found to be 76%. The same compound registered an IC50 at COX-1 (Table 11, Formula I-e) of over 100000 nM.

In the case of `Cc1c(CCOC(=O)c2ccccc2F)cc(-c2ccc(S(C)(=O)=O)cc2)n1-c1ccc(F)cc1` [Example 32, 2-(1-(4-fluorophenyl)-2-methyl-5-(4-methylsulphonyl)phenyl-1H-pyrrol-3-yl)ethyl 2-fluorobenzoate], at COX-2, the “COX-2 % of inhibition at 1.10^−5 M” value was 64%. The compound also registered an IC50 at COX-1 (Table 11, Formula I-e) of over 100000 nM.

`Cc1c(CCOC(=O)c2ccc(F)cc2)cc(-c2ccc(S(C)(=O)=O)cc2)n1-c1ccc(F)cc1` [Example 33, 2-(1-(4-fluorophenyl)-2-methyl-5-(4-methylsulphonyl)phenyl-1H-pyrrol-3-yl)ethyl 4-fluorobenzoate]: the “COX-2 % of inhibition at 1.10^−5 M” value on COX-2 turned out to be 69%. On COX-1 (Table 11, Formula I-e), the half-inhibitory concentration (IC50) is over 100000 nM.

As for `Cc1c(CCOC(=O)c2cccs2)cc(-c2ccc(S(C)(=O)=O)cc2)n1-c1ccc(F)cc1` [Example 34, 2-(1-(4-fluorophenyl)-2-methyl-5-(4-methylsulphonyl)phenyl-1H-pyrrol-3-yl)ethyl 2-tiophencarboxylate], the “COX-2 % of inhibition at 1.10^−5 M” value on COX-2 is on record as 69%. The compound further had an IC50 at COX-1 (Table 11, Formula I-e) of over 100000 nM.

As usually defined, the IC50 is the point on the concentration scale where inhibition reaches its midpoint.
